Reference: ChEMBL document CHEMBL4385643, “Design of a brain-penetrant CDK4/6 inhibitor for glioblastoma” (Bioorg Med Chem Lett, 2019)

How the values were obtained:
[1] = biological target: Aurora kinase B (Homo sapiens) (UniProt Q96GD4); experiment: Inhibition of recombinant full length human His-tagged Aurora B expressed in baculovirus expression system at 0.1 uM using serine/threonine-1 peptide as substrate incubated for 60 mins by Z'-LYTE assay relative to control
[2] = biological target: Tyrosine-protein kinase receptor UFO (Homo sapiens) (UniProt P30530); experiment: Inhibition of recombinant full length human GST-tagged AXL expressed in insect expression system at 0.1 uM using tyrosine-6 peptide as substrate incubated for 60 mins by Z'-LYTE assay relative to control
[3] = biological target: Tyrosine-protein kinase BTK (Homo sapiens) (UniProt Q06187); experiment: Inhibition of recombinant full length human His-tagged BTK expressed in baculovirus expression system at 0.1 uM using tyrosine-1 peptide as substrate incubated for 60 mins by Z'-LYTE assay relative to control
[4] = biological target: Cyclin-dependent kinase 4/cyclin D1 (Homo sapiens) (UniProt P11802+P24385); experiment: Inhibition of recombinant full length human GST-tagged CDK4/Cyclin D1 expressed in baculovirus expression system at 0.1 uM using Rb peptide as substrate incubated for 60 mins by Adapta assay relative to control
[5] = biological target: CDK9/cyclin T1 (Homo sapiens) (UniProt O60563+P50750); experiment: Inhibition of recombinant full length human His-tagged CDK9/CyclinT1 expressed in baculovirus expression system at 0.1 uM using CDK7/9tide peptide as substrate incubated for 60 mins by Adapta assay relative to control
[6] = biological target: Serine/threonine-protein kinase Chk2 (Homo sapiens) (UniProt O96017); experiment: Inhibition of recombinant full length human His-tagged CHK2 expressed in baculovirus expression system at 0.1 uM using serine/threonine-07 peptide as substrate incubated for 60 mins by Z'-LYTE assay relative to control
[7] = biological target: Casein kinase I isoform alpha (Homo sapiens) (UniProt P48729); experiment: Inhibition of recombinant full length human GST-tagged CK1alpha1 expressed in baculovirus expression system at 0.1 uM using serine/threonine-11 peptide as substrate incubated for 60 mins by Z'-LYTE assay relative to control
[8] = biological target: Casein kinase I isoform gamma-2 (Homo sapiens) (UniProt P78368); experiment: Inhibition of recombinant full length human His-tagged CK1 gamma 2 expressed in baculovirus expression system at 0.1 uM using serine/threonine-5 peptide as substrate incubated for 60 mins by Z'-LYTE assay relative to control
[9] = biological target: Myotonin-protein kinase (Homo sapiens) (UniProt Q09013); experiment: Inhibition of tracer 236 binding to recombinant full length human GST-tagged DMPK expressed in baculovirus expression system at 0.1 uM measured after 60 mins by Lanthascreen assay relative to control
[10] = biological target: Epidermal growth factor receptor (Homo sapiens) (UniProt P00533); experiment: Inhibition of recombinant human GST-tagged EGFR (668 to 1210 residues) expressed in baculovirus expression system at 0.1 uM using tyrosine-4 peptide as substrate incubated for 60 mins by Z'-LYTE assay relative to control
[11] = biological target: Ephrin type-A receptor 7 (Homo sapiens) (UniProt Q15375); experiment: Inhibition of tracer 236 binding to recombinant human His-tagged EPHA7 (579 to 998 residues) expressed in baculovirus expression system at 0.1 uM measured after 60 mins by Lanthascreen assay relative to control
[12] = biological target: Tyrosine-protein kinase FRK (Homo sapiens) (UniProt P42685); experiment: Inhibition of recombinant full length human GST-tagged FRK expressed in baculovirus expression system at 0.1 uM using tyrosine-1 peptide as substrate incubated for 60 mins by Z'-LYTE assay relative to control
[13] = biological target: G protein-coupled receptor kinase 3 (Homo sapiens) (UniProt P35626); experiment: Inhibition of recombinant full length human GST-tagged GRK3 expressed in baculovirus expression system at 0.1 uM using serine/threonine-16 peptide as substrate incubated for 60 mins by Z'-LYTE assay relative to control
[14] = biological target: Inhibitor of nuclear factor kappa-B kinase subunit beta (Homo sapiens) (UniProt O14920); experiment: Inhibition of recombinant full length human GST-tagged IKKbeta expressed in baculovirus expression system at 0.1 uM using serine/threonine-5 peptide as substrate incubated for 60 mins by Z'-LYTE assay relative to control
[15] = biological target: MAP kinase-interacting serine/threonine-protein kinase 2 (Homo sapiens) (UniProt Q9HBH9); experiment: Inhibition of tracer 236 binding to full length human GST-tagged MKNK2 expressed in baculovirus expression system at 0.1 uM measured after 60 mins by Lanthascreen assay relative to control
[16] = biological target: SRSF protein kinase 3 (Homo sapiens) (UniProt Q9UPE1); experiment: Inhibition of recombinant full length human GST-tagged MSSK1 expressed in baculovirus expression system at 0.1 uM using serine/threonine-18 peptide as substrate incubated for 60 mins by Z'-LYTE assay relative to control
[17] = biological target: Serine/threonine-protein kinase 4 (Homo sapiens) (UniProt Q13043); experiment: Inhibition of recombinant full length human GST-tagged MST1 expressed in baculovirus expression system at 0.1 uM using serine/threonine-7 peptide as substrate incubated for 60 mins by Z'-LYTE assay relative to control
[18] = biological target: Myosin light chain kinase, smooth muscle (Homo sapiens) (UniProt Q15746); experiment: Inhibition of tracer 236 binding to recombinant full length human GST-tagged MYLK expressed in baculovirus expression system at 0.1 uM measured after 60 mins by Lanthascreen assay relative to control
[19] = biological target: Serine/threonine-protein kinase Sgk2 (Homo sapiens) (UniProt Q9HBY8); experiment: Inhibition of recombinant human GST-tagged SGK2 catalytic domain (54 to 427 residues) expressed in baculovirus expression system at 0.1 uM using serine/threonine-6 peptide as substrate incubated for 60 mins by Z'-LYTE assay relative to control
[20] = biological target: STE20-like serine/threonine-protein kinase (Homo sapiens) (UniProt Q9H2G2); experiment: Inhibition of tracer 236 binding to recombinant full length human GST-tagged SLK expressed in baculovirus expression system at 0.1 uM measured after 60 mins by Lanthascreen assay relative to control
[21] = biological target: Serine/threonine-protein kinase 33 (Homo sapiens) (UniProt Q9BYT3); experiment: Inhibition of tracer 236 binding to recombinant full length human His-tagged STK33 expressed in baculovirus expression system at 0.1 uM measured after 60 mins by Lanthascreen assay relative to control
[22] = biological target: Serine/threonine-protein kinase TAO2 (Homo sapiens) (UniProt Q9UL54); experiment: Inhibition of recombinant human GST-tagged TAO2 catalytic domain (1 to 314 residues) expressed in baculovirus expression system at 0.1 uM using serine/threonine-7 peptide as substrate incubated for 60 mins by Z'-LYTE assay relative to control
[23] = biological target: Mitogen-activated protein kinase kinase kinase 8 (Homo sapiens) (UniProt P41279); experiment: Inhibition of recombinant human GST-tagged TPL2 catalytic domain (30 to 397 residues) expressed in baculovirus expression system at 0.1 uM using serine/threonine-3 peptide as substrate incubated for 60 mins by Z'-LYTE assay relative to control
[24] = biological target: Mitogen-activated protein kinase 13 (Homo sapiens) (UniProt O15264); experiment: Inhibition of recombinant full length human His-tagged p38delta expressed in baculovirus expression system at 0.1 uM using serine/threonine-3 peptide as substrate incubated for 60 mins by Z'-LYTE assay relative to control

Chain of Myotonin-protein kinase (Homo sapiens) (Q09013 whole entry, the tested form may be a part): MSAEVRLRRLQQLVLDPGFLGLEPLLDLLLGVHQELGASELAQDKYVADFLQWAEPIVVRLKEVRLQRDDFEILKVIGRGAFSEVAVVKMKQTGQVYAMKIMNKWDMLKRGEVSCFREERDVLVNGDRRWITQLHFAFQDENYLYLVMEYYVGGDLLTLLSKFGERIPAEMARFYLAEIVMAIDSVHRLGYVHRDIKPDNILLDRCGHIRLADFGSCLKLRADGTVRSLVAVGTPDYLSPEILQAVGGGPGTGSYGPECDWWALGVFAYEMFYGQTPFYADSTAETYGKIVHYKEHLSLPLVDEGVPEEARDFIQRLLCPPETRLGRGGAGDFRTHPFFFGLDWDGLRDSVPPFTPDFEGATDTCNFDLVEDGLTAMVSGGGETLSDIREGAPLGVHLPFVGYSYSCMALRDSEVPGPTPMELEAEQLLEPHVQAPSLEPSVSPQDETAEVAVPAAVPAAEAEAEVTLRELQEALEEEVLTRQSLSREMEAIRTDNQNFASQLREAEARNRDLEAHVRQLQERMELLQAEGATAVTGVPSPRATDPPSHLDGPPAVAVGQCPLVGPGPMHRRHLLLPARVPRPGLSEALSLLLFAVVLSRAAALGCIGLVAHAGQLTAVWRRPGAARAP
Chain of Aurora kinase B (Homo sapiens) (Q96GD4 whole entry): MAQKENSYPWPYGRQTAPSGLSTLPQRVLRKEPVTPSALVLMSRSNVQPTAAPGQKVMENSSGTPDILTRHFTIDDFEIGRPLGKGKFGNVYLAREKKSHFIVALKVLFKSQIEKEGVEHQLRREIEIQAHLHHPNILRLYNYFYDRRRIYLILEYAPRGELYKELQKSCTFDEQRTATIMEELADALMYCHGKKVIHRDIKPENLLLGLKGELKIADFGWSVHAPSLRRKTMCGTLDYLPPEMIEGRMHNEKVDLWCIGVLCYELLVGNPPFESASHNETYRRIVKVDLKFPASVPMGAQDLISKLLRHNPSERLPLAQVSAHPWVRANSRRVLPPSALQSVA
Chain of Serine/threonine-protein kinase TAO2 (Homo sapiens) (Q9UL54 whole entry, the tested form may be a part): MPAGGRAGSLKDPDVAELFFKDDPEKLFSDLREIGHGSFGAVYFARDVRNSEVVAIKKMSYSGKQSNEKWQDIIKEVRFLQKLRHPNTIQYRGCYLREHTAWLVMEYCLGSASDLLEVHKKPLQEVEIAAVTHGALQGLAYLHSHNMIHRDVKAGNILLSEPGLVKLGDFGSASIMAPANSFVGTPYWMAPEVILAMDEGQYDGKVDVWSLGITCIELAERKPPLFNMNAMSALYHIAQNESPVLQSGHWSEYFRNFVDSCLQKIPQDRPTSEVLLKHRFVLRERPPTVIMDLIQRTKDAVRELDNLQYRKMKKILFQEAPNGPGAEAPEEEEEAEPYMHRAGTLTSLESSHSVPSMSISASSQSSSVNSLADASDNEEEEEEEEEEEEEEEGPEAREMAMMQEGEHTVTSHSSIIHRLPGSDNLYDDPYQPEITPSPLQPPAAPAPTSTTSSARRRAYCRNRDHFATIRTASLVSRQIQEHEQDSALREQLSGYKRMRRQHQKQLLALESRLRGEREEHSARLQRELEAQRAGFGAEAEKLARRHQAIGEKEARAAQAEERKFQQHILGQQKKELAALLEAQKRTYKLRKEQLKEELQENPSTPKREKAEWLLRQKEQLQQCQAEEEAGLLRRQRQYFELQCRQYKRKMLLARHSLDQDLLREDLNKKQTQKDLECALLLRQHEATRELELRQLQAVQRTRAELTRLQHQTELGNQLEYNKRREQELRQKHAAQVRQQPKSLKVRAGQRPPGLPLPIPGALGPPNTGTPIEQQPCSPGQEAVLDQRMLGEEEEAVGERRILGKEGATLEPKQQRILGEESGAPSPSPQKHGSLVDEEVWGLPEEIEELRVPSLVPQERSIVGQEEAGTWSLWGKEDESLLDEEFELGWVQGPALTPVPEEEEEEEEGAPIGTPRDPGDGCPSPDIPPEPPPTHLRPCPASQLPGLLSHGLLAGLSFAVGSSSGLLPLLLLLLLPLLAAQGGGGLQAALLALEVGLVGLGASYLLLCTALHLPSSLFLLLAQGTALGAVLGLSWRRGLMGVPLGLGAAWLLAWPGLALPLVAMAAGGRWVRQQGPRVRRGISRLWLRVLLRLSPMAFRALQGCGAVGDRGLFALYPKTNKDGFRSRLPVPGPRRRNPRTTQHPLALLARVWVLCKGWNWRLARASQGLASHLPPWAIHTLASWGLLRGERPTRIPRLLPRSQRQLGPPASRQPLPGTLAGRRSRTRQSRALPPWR
Chain of Serine/threonine-protein kinase 33 (Homo sapiens) (Q9BYT3 whole entry, looked up, the tested form may be a part): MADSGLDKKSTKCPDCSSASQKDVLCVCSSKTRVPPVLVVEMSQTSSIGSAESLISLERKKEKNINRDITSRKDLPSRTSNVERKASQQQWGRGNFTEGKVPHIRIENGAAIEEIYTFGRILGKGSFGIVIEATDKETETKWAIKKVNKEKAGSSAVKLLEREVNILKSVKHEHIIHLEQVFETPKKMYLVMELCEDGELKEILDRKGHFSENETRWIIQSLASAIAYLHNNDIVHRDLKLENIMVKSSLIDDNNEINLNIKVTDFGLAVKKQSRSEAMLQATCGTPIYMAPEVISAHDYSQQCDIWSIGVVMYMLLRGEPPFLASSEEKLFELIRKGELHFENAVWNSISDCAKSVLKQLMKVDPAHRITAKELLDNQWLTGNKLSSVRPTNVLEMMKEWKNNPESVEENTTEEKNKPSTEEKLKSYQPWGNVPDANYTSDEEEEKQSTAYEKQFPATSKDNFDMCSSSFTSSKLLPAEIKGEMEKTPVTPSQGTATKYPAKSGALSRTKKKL
Chain of Tyrosine-protein kinase BTK (Homo sapiens) (Q06187 whole entry): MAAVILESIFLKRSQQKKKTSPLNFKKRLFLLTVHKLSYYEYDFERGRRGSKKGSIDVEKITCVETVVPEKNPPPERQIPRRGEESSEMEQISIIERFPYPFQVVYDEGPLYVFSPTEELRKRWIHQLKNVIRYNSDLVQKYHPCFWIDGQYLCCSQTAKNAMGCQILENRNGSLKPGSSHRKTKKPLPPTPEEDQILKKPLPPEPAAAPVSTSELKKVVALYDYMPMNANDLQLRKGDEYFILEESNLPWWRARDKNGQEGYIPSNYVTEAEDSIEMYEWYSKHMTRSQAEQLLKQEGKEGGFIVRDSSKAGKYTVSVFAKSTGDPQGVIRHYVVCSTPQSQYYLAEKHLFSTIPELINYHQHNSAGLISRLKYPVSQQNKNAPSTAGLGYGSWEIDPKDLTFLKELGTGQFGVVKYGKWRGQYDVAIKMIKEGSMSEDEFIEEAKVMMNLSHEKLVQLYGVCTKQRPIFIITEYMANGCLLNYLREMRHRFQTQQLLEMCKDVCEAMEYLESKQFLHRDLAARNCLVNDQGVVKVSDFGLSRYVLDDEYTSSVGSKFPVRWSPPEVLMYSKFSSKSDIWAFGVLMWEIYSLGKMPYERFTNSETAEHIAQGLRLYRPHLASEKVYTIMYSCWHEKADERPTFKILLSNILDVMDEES
Chain of Casein kinase I isoform alpha (Homo sapiens) (P48729 2-337 limits assumed): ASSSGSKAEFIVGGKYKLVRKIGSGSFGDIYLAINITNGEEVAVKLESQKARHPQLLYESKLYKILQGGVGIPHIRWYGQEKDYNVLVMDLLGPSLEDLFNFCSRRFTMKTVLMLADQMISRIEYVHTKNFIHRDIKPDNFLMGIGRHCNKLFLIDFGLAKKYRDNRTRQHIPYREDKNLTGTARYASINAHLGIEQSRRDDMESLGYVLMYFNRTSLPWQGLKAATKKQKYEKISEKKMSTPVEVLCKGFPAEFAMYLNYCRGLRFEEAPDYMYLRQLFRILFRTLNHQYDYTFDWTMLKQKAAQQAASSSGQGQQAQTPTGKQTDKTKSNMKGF
Chain of Ephrin type-A receptor 7 (Homo sapiens) (Q15375 28-998 limits assumed): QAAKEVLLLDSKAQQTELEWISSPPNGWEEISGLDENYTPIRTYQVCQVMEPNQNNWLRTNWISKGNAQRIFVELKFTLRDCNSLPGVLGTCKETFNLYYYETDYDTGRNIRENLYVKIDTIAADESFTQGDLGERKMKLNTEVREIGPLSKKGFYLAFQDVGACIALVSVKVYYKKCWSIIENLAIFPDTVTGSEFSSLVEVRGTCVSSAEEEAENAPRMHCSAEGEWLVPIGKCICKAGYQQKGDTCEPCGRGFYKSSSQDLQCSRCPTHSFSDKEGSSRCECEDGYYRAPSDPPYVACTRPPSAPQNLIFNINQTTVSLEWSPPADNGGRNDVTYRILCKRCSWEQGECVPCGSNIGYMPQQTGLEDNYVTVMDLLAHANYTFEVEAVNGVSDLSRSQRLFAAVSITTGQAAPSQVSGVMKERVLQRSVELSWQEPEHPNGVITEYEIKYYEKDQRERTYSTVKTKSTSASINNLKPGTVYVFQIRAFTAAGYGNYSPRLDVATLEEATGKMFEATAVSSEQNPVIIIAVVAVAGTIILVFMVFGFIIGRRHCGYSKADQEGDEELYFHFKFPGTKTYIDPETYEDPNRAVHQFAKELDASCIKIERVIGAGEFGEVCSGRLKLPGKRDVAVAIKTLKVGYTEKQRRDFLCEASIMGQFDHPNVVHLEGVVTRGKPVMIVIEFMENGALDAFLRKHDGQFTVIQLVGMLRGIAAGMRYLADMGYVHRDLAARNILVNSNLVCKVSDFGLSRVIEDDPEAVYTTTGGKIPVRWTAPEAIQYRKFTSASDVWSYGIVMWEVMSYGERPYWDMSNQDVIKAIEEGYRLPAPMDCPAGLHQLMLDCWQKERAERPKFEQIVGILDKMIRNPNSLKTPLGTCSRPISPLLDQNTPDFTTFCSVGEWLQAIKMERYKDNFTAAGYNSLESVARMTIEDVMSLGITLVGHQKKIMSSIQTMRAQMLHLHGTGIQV

Structure (SMILES)	inhibition [1]	inhibition [2]	inhibition [3]	inhibition [4]	inhibition [5]	inhibition [6]	inhibition [7]	inhibition [8]	inhibition [9]	inhibition [10]	inhibition [11]	inhibition [12]	inhibition [13]	inhibition [14]	inhibition [15]	inhibition [16]	inhibition [17]	inhibition [18]	inhibition [19]	inhibition [20]	also measured
CCN1CCN(Cc2ccc(Nc3ncc(F)c(-c4cc(F)c5nc(C)n(C(C)C)c5c4)n3)nc2)CC1 [ABEMACICLIB]	14.5%	15%	3%	87%	92.5%	0.5%	4.5%	7%	76.9%	4%	11.7%	5.5%	0.5%	12.5%	18.3%	3.5%	1.5%	14.7%	36.5%	9.3%	inhibition [21]: 50.8%; inhibition [22]: 56%; inhibition [23]: 11%; inhibition [24]: 7%
CCN1CC2(C1)CN(c1ccc(Nc3ncc(F)c(-c4cnn5c4[C@H](C)CCCC5)n3)nc1)C2	7.5%	11.5%	4%	94%	59.5%	22.5%	1.5%	3.5%	46%	0%	5.5%	1.5%	0%	5%	75%	9%	8%	5.5%	27.5%	10.5%	inhibition [21]: 50%; inhibition [22]: 12.5%; inhibition [23]: 26%; inhibition [24]: 3.5%
